From the supplement of paper PMC13380429

How the values were obtained:
Vero E6 [1] = assay: relative viability EC50 (midpoint between 100% and the lowest measured viability); higher = less toxic; conditions: 72 h
U2OS [2] = assay: as above; conditions: 72 h
Calu-3 [3] = assay: as above; conditions: 72 h
[4] = tested on: A549-ACE2 infected with SARS-CoV-2; assay: SARS-CoV-2 infection rate relative to DMSO; higher = more infection; conditions: 24 h
[5] = tested on: A549-ACE2 infected with SARS-CoV-2; assay: cell count relative to DMSO; higher = less toxic; conditions: 24 h
Vero E6 [6] = assay: cell viability relative to DMSO; higher = less toxic; conditions: 72 h
U2OS [7] = assay: as above; conditions: 72 h
Caco-2 [8] = assay: as above; conditions: 72 h
Calu-3 [9] = assay: as above; conditions: 72 h
HepG2 [10] = assay: as above; conditions: 72 h
Vero E6 [11] = assay: drug sensitivity score (DSS) for viability; higher = more toxic; extreme values may be limits of the assay; conditions: 72 h
U2OS [12] = assay: as above; conditions: 72 h
Caco-2 [13] = assay: as above; conditions: 72 h
Calu-3 [14] = assay: as above; conditions: 72 h
HepG2 [15] = assay: as above; conditions: 72 h
A549-ACE2 [16] = assay: phospholipidosis EC50; higher = less potent phospholipidosis inducer
[17] = tested on: A549-ACE2 infected with SARS-CoV-2; assay: morphology score (similarity to uninfected cells); higher = more like uninfected cells; conditions: 24 h
A549-ACE2 [18] = assay: drug-induced phospholipidosis relative to tamoxifen; higher = more phospholipidosis
Caco-2 [19] = assay: relative viability EC50 (midpoint between 100% and the lowest measured viability); higher = less toxic; conditions: 72 h
HepG2 [20] = assay: as above; conditions: 72 h

CC(C)(Cc1ccc2ccccc2c1)NC[C@@H](O)COc1cccc(Cl)c1C#N [NPS-2143]
Conditions | drug sensitivity score | relative viability EC50
Caco-2 [13] | 2.6 | –
Calu-3 [3] | – | 3.32 µM
Calu-3 [14] | 5.3 | –
HepG2 [15] | 2.3 | –
U2OS [2] | – | 2650 nM
U2OS [12] | 3.9 | –
Vero E6 [1] | – | > 10 µM
Vero E6 [11] | 0.3 | –

Conditions | SARS-CoV-2 infection rate [%] | cell count [%] | cell viability [%] | morphology score | phospholipidosis EC50 [µM]
A549-ACE2 [16], 24 h | – | – | – | – | 1.06
A549-ACE2 [16], 48 h | – | – | – | – | 2.34
A549-ACE2 [16], 72 h | – | – | – | – | 3.1
Caco-2 [8], 1 nM | – | – | 99.1 | – | –
Caco-2 [8], 10 nM | – | – | 101 | – | –
Caco-2 [8], 100 nM | – | – | 103 | – | –
Caco-2 [8], 1000 nM | – | – | 100 | – | –
Caco-2 [8], 10000 nM | – | – | 50.5 | – | –
Calu-3 [9], 1 nM | – | – | 89.4 | – | –
Calu-3 [9], 10 nM | – | – | 95.8 | – | –
Calu-3 [9], 100 nM | – | – | 96.7 | – | –
Calu-3 [9], 1000 nM | – | – | 103 | – | –
Calu-3 [9], 10000 nM | – | – | 0.6 | – | –
HepG2 [10], 1 nM | – | – | 100 | – | –
HepG2 [10], 10 nM | – | – | 104 | – | –
HepG2 [10], 100 nM | – | – | 103 | – | –
HepG2 [10], 1000 nM | – | – | 101 | – | –
HepG2 [10], 10000 nM | – | – | 53.9 | – | –
U2OS [7], 1 nM | – | – | 100 | – | –
U2OS [7], 10 nM | – | – | 97.9 | – | –
U2OS [7], 100 nM | – | – | 105 | – | –
U2OS [7], 1000 nM | – | – | 96.1 | – | –
U2OS [7], 10000 nM | – | – | 39.1 | – | –
Vero E6 [6], 1 nM | – | – | 93.1 | – | –
Vero E6 [6], 10 nM | – | – | 97.6 | – | –
Vero E6 [6], 100 nM | – | – | 93.5 | – | –
Vero E6 [6], 1000 nM | – | – | 99.6 | – | –
Vero E6 [6], 10000 nM | – | – | 84.4 | – | –
[4], 0.3 µM | 101 | – | – | – | –
[4], 3 µM | 23 | – | – | – | –
[4], 10 µM | 43 | – | – | – | –
[5], 0.3 µM | – | 100 | – | – | –
[5], 3 µM | – | 113 | – | – | –
[5], 10 µM | – | 68 | – | – | –
[17], 0.3 µM | – | – | – | 0.09 | –
[17], 3 µM | – | – | – | 0.87 | –
[17], 10 µM | – | – | – | 0.11 | –

drug-induced phospholipidosis [%], A549-ACE2 [18]
Conditions | 0.3 µM | 0.833333 µM | 3.33333 µM | 6.66667 µM | 10 µM | 30 µM
24 h | 14.7 | 30.2 | 98.4 | 140 | 135 | 14.7
48 h | 8.59 | 25.2 | 96.8 | 135 | 132 | –
72 h | 10.7 | 13.3 | 94 | 135 | 133 | –

Fc1cc(-c2cccc3ncc(-c4cnn(C5CCNCC5)c4)nc23)cc(F)c1CN1CCOCC1 [NVP-BSK805]
Conditions | drug sensitivity score | relative viability EC50
Caco-2 [13] | 2.9 | –
Caco-2 [19] | – | 3.55 µM
Calu-3 [14] | 1.1 | –
HepG2 [15] | 4.6 | –
HepG2 [20] | – | 2280 nM
U2OS [2] | – | 2900 nM
U2OS [12] | 4.6 | –
Vero E6 [1] | – | 3.15 µM
Vero E6 [11] | 2.7 | –

Conditions | SARS-CoV-2 infection rate [%] | cell count [%] | cell viability [%] | morphology score | phospholipidosis EC50 [µM]
A549-ACE2 [16], 24 h | – | – | – | – | 3.94
A549-ACE2 [16], 48 h | – | – | – | – | 9.74
A549-ACE2 [16], 72 h | – | – | – | – | 4.49
Caco-2 [8], 1 nM | – | – | 99.5 | – | –
Caco-2 [8], 10 nM | – | – | 98.8 | – | –
Caco-2 [8], 100 nM | – | – | 104 | – | –
Caco-2 [8], 1000 nM | – | – | 105 | – | –
Caco-2 [8], 10000 nM | – | – | 39.8 | – | –
Calu-3 [9], 1 nM | – | – | 99.5 | – | –
Calu-3 [9], 10 nM | – | – | 97.2 | – | –
Calu-3 [9], 100 nM | – | – | 95 | – | –
Calu-3 [9], 1000 nM | – | – | 104 | – | –
Calu-3 [9], 10000 nM | – | – | 69.6 | – | –
HepG2 [10], 1 nM | – | – | 106 | – | –
HepG2 [10], 10 nM | – | – | 110 | – | –
HepG2 [10], 100 nM | – | – | 96.2 | – | –
HepG2 [10], 1000 nM | – | – | 93.1 | – | –
HepG2 [10], 10000 nM | – | – | 35.8 | – | –
U2OS [7], 1 nM | – | – | 101 | – | –
U2OS [7], 10 nM | – | – | 101 | – | –
U2OS [7], 100 nM | – | – | 97.6 | – | –
U2OS [7], 1000 nM | – | – | 97.2 | – | –
U2OS [7], 10000 nM | – | – | 22.9 | – | –
Vero E6 [6], 1 nM | – | – | 97.9 | – | –
Vero E6 [6], 10 nM | – | – | 102 | – | –
Vero E6 [6], 100 nM | – | – | 100 | – | –
Vero E6 [6], 1000 nM | – | – | 99.9 | – | –
Vero E6 [6], 10000 nM | – | – | 48.4 | – | –
[4], 0.1 µM | 96 | – | – | – | –
[4], 0.3 µM | 100 | – | – | – | –
[4], 1 µM | 86 | – | – | – | –
[4], 3 µM | 45 | – | – | – | –
[5], 0.1 µM | – | 102 | – | – | –
[5], 0.3 µM | – | 103 | – | – | –
[5], 1 µM | – | 105 | – | – | –
[5], 3 µM | – | 110 | – | – | –
[17], 0.1 µM | – | – | – | 0.17 | –
[17], 0.3 µM | – | – | – | 0.13 | –
[17], 1 µM | – | – | – | 0.47 | –
[17], 3 µM | – | – | – | 0.68 | –

drug-induced phospholipidosis [%], A549-ACE2 [18]
Conditions | 0.3 µM | 0.833333 µM | 3.33333 µM | 6.66667 µM | 10 µM | 30 µM
24 h | 5.98 | 16 | 55.1 | 93.5 | 113 | 119
48 h | 2.53 | 10.2 | 51.2 | 101 | 134 | –
72 h | 5.16 | 6.57 | 55.6 | 119 | – | –

CN1CCN(Cc2ccc(-c3cnc4[nH]cc(-c5ccc6[nH]ccc6c5)c4c3)cc2)CC1 [URMC-099]
Conditions | drug sensitivity score | relative viability EC50
Caco-2 [13] | 4.4 | –
Caco-2 [19] | – | 3.71 µM
Calu-3 [3] | – | > 10 µM
Calu-3 [14] | 0 | –
HepG2 [15] | 7 | –
HepG2 [20] | – | 2230 nM
U2OS [2] | – | 2790 nM
U2OS [12] | 6 | –
Vero E6 [1] | – | 3.45 µM
Vero E6 [11] | 5.1 | –

Conditions | SARS-CoV-2 infection rate [%] | cell count [%] | cell viability [%] | morphology score | phospholipidosis EC50 [µM]
A549-ACE2 [16], 24 h | – | – | – | – | 1.07
A549-ACE2 [16], 48 h | – | – | – | – | 4.29
A549-ACE2 [16], 72 h | – | – | – | – | 8.25
Caco-2 [8], 1 nM | – | – | 103 | – | –
Caco-2 [8], 10 nM | – | – | 107 | – | –
Caco-2 [8], 100 nM | – | – | 104 | – | –
Caco-2 [8], 1000 nM | – | – | 111 | – | –
Caco-2 [8], 10000 nM | – | – | 7.8 | – | –
Calu-3 [9], 1 nM | – | – | 93.1 | – | –
Calu-3 [9], 10 nM | – | – | 100 | – | –
Calu-3 [9], 100 nM | – | – | 95.3 | – | –
Calu-3 [9], 1000 nM | – | – | 128 | – | –
Calu-3 [9], 10000 nM | – | – | 111 | – | –
HepG2 [10], 1 nM | – | – | 111 | – | –
HepG2 [10], 10 nM | – | – | 89.8 | – | –
HepG2 [10], 100 nM | – | – | 95.8 | – | –
HepG2 [10], 1000 nM | – | – | 89.2 | – | –
HepG2 [10], 10000 nM | – | – | 5.3 | – | –
U2OS [7], 1 nM | – | – | 99 | – | –
U2OS [7], 10 nM | – | – | 95.5 | – | –
U2OS [7], 100 nM | – | – | 104 | – | –
U2OS [7], 1000 nM | – | – | 95.2 | – | –
U2OS [7], 10000 nM | – | – | 3.5 | – | –
Vero E6 [6], 1 nM | – | – | 92.9 | – | –
Vero E6 [6], 10 nM | – | – | 102 | – | –
Vero E6 [6], 100 nM | – | – | 95.4 | – | –
Vero E6 [6], 1000 nM | – | – | 105 | – | –
Vero E6 [6], 10000 nM | – | – | 0.9 | – | –
[4], 0.1 µM | 99 | – | – | – | –
[4], 0.3 µM | 102 | – | – | – | –
[4], 1 µM | 85 | – | – | – | –
[4], 3 µM | 18 | – | – | – | –
[5], 0.1 µM | – | 111 | – | – | –
[5], 0.3 µM | – | 105 | – | – | –
[5], 1 µM | – | 110 | – | – | –
[5], 3 µM | – | 108 | – | – | –
[17], 0.1 µM | – | – | – | 0.26 | –
[17], 0.3 µM | – | – | – | 0.37 | –
[17], 1 µM | – | – | – | 0.6 | –
[17], 3 µM | – | – | – | 0.68 | –

drug-induced phospholipidosis [%], A549-ACE2 [18]
Conditions | 0.3 µM | 0.833333 µM | 3.33333 µM | 6.66667 µM | 10 µM
24 h | 3.77 | 15.4 | 149 | 143 | 136
48 h | 2.54 | 6.25 | 111 | 164 | 208
72 h | 3.51 | 1.18 | 69.5 | 69.5 | 200
